The source of these data is patent US20110038889A1, “METHODS AND COMPOSITIONS FOR ALTERING CELL FUNCTION” (ALLTECH, INC., priority 2005, published 2011).

The nature of data set [1]: Body weight of mice on selenium diets. It counts as in vivo, mouse. The source says:
(§1) Animal Care. Male C57BL/6J mice were housed singly and started on the experimental diets described below immediately after weaning (21 days of age). The mice were maintained in the Shared Aging Rodent Facility at the William S. Middleton Memorial Veterans Administration Medical Center (Madison, Wis.). Temperature and humidity were maintained at constant levels. Room light was controlled to provide 12-hr cycles of light and dark.
Experimental diets were created by Harlan Teklad (Madison, Wis.). Selenium content of the diets was determined by Covance Inc. (Madison, Wis.). […]
Thus, it was an object of the present invention to determine whether compositions and methods of the present invention could alter the expression levels (e.g., mRNA levels) of various genes. One group of genes analyzed were genes classically associated with selenium. As described above, the expression levels of genes were analyzed between mice with and without dietary selenium, or, between mice fed different sources of selenium) (See, e.g., Table 1, below).

A further data set concerns selenoprotein N1 (Sepn1). The experiment in a line: Microarray gene expression, mouse intestine: Sepn1. The format is in vivo. Particulars: diet 1 ppm Se, 100 days, vs selenium-deficient diet, p<0.02 for SEL-PLEX.
Source text: as §1
(§2) Experimental diets were created by Harlan Teklad (Madison, Wis.). Selenium content of the diets was determined by Covance Inc. (Madison, Wis.). Five (5) animals were included in each of the following treatment groups: a diet deficient in selenium (SD); a diet supplemented with selenomethionine (SM, obtained from Sigma,St. Louis, Mo.) such that the final selenium content of the diet was one (1) part per million; a diet supplemented with sodium selenite (SS, Sigma) such that the final concentration of selenium in this diet was one (1) part per million; or a diet supplemented with the yeast selenium SEL-PLEX (SP, Alltech, Lexington, Ky.), such that the final concentration of selenium in this diet was one (1) part per million. SEL-PLEX. […]
(§3) Tissue sample preparation and microarray analysis. […] For intestinal expression studies, the intestine was flushed twice with saline solution and small intestine was measured and divided in three equal segments. […]

The test system of data set [2] is Complement component 1, q subcomponent, gamma polypeptide, C1qg. The experiment in a line: Microarray gene expression, mouse cerebral cortex: C1qg. Particulars: diet 1 ppm Se, 100 days, vs selenium-deficient diet, negative = down-regulated, * p<0.01. The format is in vivo.
Source text: as §1, §2, §3

Data set [3] concerns LIM homeobox protein 8 gene (Lhx8). The experiment in a line: Microarray gene expression, mouse intestine: Lhx8. The format is in vivo. Conditions: Example 5 (intestine); diet 1 ppm Se, 100 days; vs Se-deficient subjects; p<0.01 for SEL-PLEX.
Source text: as §1, §2, §3

The subject of a further data set is SelR (Selenoprotein X1). The experiment in a line: Microarray gene expression, mouse intestine: SelR. Particulars: diet 1 ppm Se, 100 days, vs selenium-deficient diet, p<0.01 Sod-sel, p<0.05 SEL-PLEX. It counts as in vivo.
Source text: as §1, §2, §3

For another data set, the system named is Neurogenin 3 (Neurog3). Kind of data set: Microarray gene expression, mouse intestine: Neurog3. Conditions: Example 6 (intestine); diet 1 ppm Se, 100 days; vs selenium-deficient diet. The format is in vivo.
Source text: as §1, §2, §3

Data set [4] deals with transforming growth factor beta 2 (TGF-β2). The experiment in a line: Microarray gene expression, mouse intestine: TGF-β2. It counts as in vivo. Particulars: Example 5 (intestine); diet 1 ppm Se, 100 days; compared to controls.
Source text: as §1, §2, §3

Data set [5] deals with sprouty homolog 2 gene (Spry2). The experiment in a line: Microarray gene expression, mouse intestine: Spry2. It counts as in vivo. Particulars: Example 7 (intestine); diet 1 ppm Se, 100 days; relative to Se-deficient controls.
Source text: as §1, §2, §3

For a further data set, the system named is Glyoxalase 1 (Glo1). The experiment in a line: Microarray gene expression, mouse intestine: Glo1. Conditions: Example 4 (intestine); diet 1 ppm Se, 100 days; vs selenium-deficient diet; p<0.01 for SEL-PLEX. The format is in vivo.
Source text: as §1, §2, §3

Another data set concerns CORS-26. Kind of data set: Microarray gene expression, mouse cerebral cortex: CORS-26. The format is in vivo. Conditions: Example 10 (cerebral cortex); diet 1 ppm Se, 100 days; vs selenium-deficient diet.
Source text: as §1, §2, §3

For data set [6], the system named is Type 1 iodothyronine deiodinase. The experiment in a line: Microarray gene expression, mouse intestine: Type 1 iodothyronine deiodinase. Particulars: diet 1 ppm Se, 100 days, vs selenium-deficient diet. It counts as in vivo.
Source text: as §1, §2, §3

Data set [7] relates to type II iodothyronine deiodinase (Dio2). Kind of data set: Microarray gene expression, mouse intestine: Dio2. Conditions: Example 4 (intestine); diet 1 ppm Se, 100 days; vs selenium-deficient diet. The format is in vivo.
Source text: as §1, §2, §3

Data set [8] deals with Growth arrest and DNA-damage-inducible 45 gamma (Gadd45g). The experiment in a line: Microarray gene expression, mouse intestine: Gadd45g. It counts as in vivo. Particulars: diet 1 ppm Se, 100 days, vs selenium-deficient diet, negative = down-regulated.
Source text: as §1, §2, §3

The test system of a further data set is Selenoprotein W (SelW). Kind of data set: Microarray gene expression, mouse intestine: SelW. The format is in vivo. Particulars: diet 1 ppm Se, 100 days, vs selenium-deficient diet.
Source text: as §1, §2, §3

Data set [9] in a line: Chick brain Se concentration at day 14 (offspring of treated hens). It counts as in vivo, chicks (offspring of white-egg-laying hens). Conditions: chicks of hens fed 0.3 ppm Se; chicks grown 14 days on Se deficient diet; pooled brains; basal 786 ppb. On the procedure:
(§4) Compositions and methods of the present invention were utilized to evaluate the effects of various Se sources on the accumulation of brain Se concentrations in hens and their offspring.
(§5) The study was conducted at the Coldstream Research Facility from Jun. 28, 2004 until Nov. 16, 2004. Six dietary treatments were fed to a total of 48 hens (r=8) that were bred on three consecutive days starting on Sep. 16, 2004.
(§6) The dietary treatments were as follows: Basal (no added Se) Selenite (0.3 ppm) SEL-PLEX (0.3 ppm) Tepsel (0.3 ppm) Se 2000 (0.3 ppm) Selenosource (0.3 ppm)
(§7) Chicks that hatched were divided into two groups. Half of the chicks were killed for brain collection and the remaining chicks were allowed to grow for 14 days on a Se deficient diet, at which time they were terminated for brain collection. Hen brains were analyzed for Se content individually, whereas the chick brains were homogenized and pooled because of small sample size.

Data set [10] can be described thus: Hen brain Se concentration after dietary selenium sources. The format is in vivo, White-Egg-Laying Hens. Particulars: 0.3 ppm Se in hen diet; basal diet 870 ppb; Selenosource one sample only. On the procedure:
as §4, §5, §6, §7

Data set [11] has as its system Glutathione S-transferase, alpha 3 (Gsta3). The experiment in a line: Microarray gene expression, mouse intestine: Gsta3. The format is in vivo. Conditions: diet 1 ppm Se, 100 days, vs Se-deficient diets, negative = down-regulated, NS = not significant.
Source text: as §1, §2, §3

The subject of the next data set is Cathepsin Z. Kind of data set: Microarray gene expression, mouse cerebral cortex: Cathepsin Z. The format is in vivo. Particulars: diet 1 ppm Se, 100 days, relative to Se-deficient mice, negative = down-regulated, * significant.
Source text: as §1, §2, §3

Data set [12] has as its system Glutathione S-transferase, theta 2 (Gstt2). Kind of data set: Microarray gene expression, mouse intestine: Gstt2. Conditions: diet 1 ppm Se, 100 days, vs Se-deficient diets, negative = down-regulated, NS = not significant. It counts as in vivo.
Source text: as §1, §2, §3

Data set [13] deals with Glutathione S-transferase, mu2 (Gstm2). Kind of data set: Microarray gene expression, mouse intestine: Gstm2. It counts as in vivo. Particulars: diet 1 ppm Se, 100 days, vs Se-deficient diets, negative = down-regulated, NS = not significant.
Source text: as §1, §2, §3

The subject of the next data set is Gst zeta 1 (Gstz1). The experiment in a line: Microarray gene expression, mouse brain: Gstz1. Conditions: diet 1 ppm Se, 100 days, relative to Se-deficient animals, negative = down-regulated, * significant. It counts as in vivo.
Source text: as §1, §2, §3

Data set [14] has as its system Glutathione S-transferase, mu3 (Gstm3). Kind of data set: Microarray gene expression, mouse intestine: Gstm3. The format is in vivo. Particulars: diet 1 ppm Se, 100 days, vs Se-deficient diets, negative = down-regulated, NS = not significant.
Source text: as §1, §2, §3

Data set [15] has as its system Glutathione S-transferase, mu1 (Gstm1). Kind of data set: Microarray gene expression, mouse intestine: Gstm1. The format is in vivo. Conditions: diet 1 ppm Se, 100 days, vs Se-deficient diets, negative = down-regulated, NS = not significant.
Source text: as §1, §2, §3

Another data set concerns calpain-5. Kind of data set: Expression level of calpain genes after selenium administration. The format is in vivo. Particulars: tissue not stated; + up, − down; * not explained at this place. On the procedure:
Compositions and methods of the present invention were analyzed to determine if they were capable of altering the expression levels of calpain genes. Compositions comprising various forms of selenium (e.g., SeM, Sod-sel, and SEL-PLEX) were administered to subjects and the expression levels of calpain genes monitored. The expression level of calpain-5 was altered by treatment in the following ways: free selenomethionine (SM) +1.32*, Sod-sel −1.07, SEL-PLEX −1.44*.

For data set [16], the system named is Thioredoxin Reductase 1 gene. The experiment in a line: Microarray gene expression, mouse intestine: Thioredoxin Reductase 1. It counts as in vivo. Conditions: diet 1 ppm Se, 100 days, vs selenium-deficient diet, all p <0.01.
Source text: as §1, §2, §3

In the case of `C[Se]CC[C@H](N)C(=O)O` [SeM, selenomethionine], the “Body weights of mice” value in data set [1] (mouse, in vivo) is on record as “No significant differences”. The “Fold increase of selenoprotein N1 (Sepn1) gene expression” value in the data set on selenoprotein N1 (Sepn1) is “not significantly affected”. Besides, the “FC (fold change) of C1qg expression” value in [2] is on record as 1.0 fold. Further, in data set [3], the “Fold upregulation of Lhx8 expression” value is recorded as “not significantly different”. Besides, the “Fold upregulation of SelR gene expression” value with SelR (Selenoprotein X1) is “not significantly affected”. For the same compound, the “Fold upregulation of Neurog3 expression” value in the data set with Neurogenin 3 (Neurog3) is listed as “no significant alteration”. In [4], the “Fold upregulation of TGF-β2 expression” value is “not altered”. Besides, the “Fold reduction in Spry2 gene expression” value in data set [5] is listed as “no alteration”. The “Fold reduction of Glo1 expression” value in the data set with Glyoxalase 1 (Glo1) was “not significantly affected”. Besides, the “Fold reduction in expression of CORS-26” value in the data set on CORS-26 was “no alteration”. Further, the “Fold increase in expression level of Type 1 iodothyronine deiodinase” value in data set [6] is recorded as 2.0 fold. The “Fold down-regulation of Dio2 expression” value in [7] is “no ability to alter”. Moreover, the “FC (fold change) of Gadd45g expression” value in data set [8] is −1.5 (p < 0.05) fold. Besides, the “Fold upregulation of Selenoprotein W (SelW) expression” value in the data set with Selenoprotein W (SelW) is “not significantly altered”.

Take `O=[Se](O)O` [Selenite]: in data set [9], the “Chick Brain Se Concentration at day 14” value is listed as 784 ppb. Further, the “Hen Brain Se Concentration” value in data set [10] came out at 850 ppb.

`O=[Se](O)O` [Sod-sel, sodium selenite]: the “FC (fold change) of Gsta3 expression” value in [11] was −2.3 fold. In addition, in data set [1] (compared among selenium-deficient, Se-meth, Sod-sel and SEL-PLEX diets (FIG. 1)), the “Body weights of mice” value is reported as “No significant differences”. Further, in the data set with Cathepsin Z, the “FC (fold change) of Cathepsin Z expression” value is −1.30* fold. In addition, the “FC (fold change) of Gstt2 expression” value in data set [12] is −1.3 fold. Moreover, the “Fold upregulation of SelR gene expression” value in the data set with SelR (Selenoprotein X1) is 1.3 fold. Also, the “FC (fold change) of Gstm2 expression” value in data set [13] is recorded as −2.1 fold. The “FC (fold change) of Gstz1 expression in brain” value with Gst zeta 1 (Gstz1) is −1.3 fold. Further, the “FC (fold change) of Gstm3 expression” value in data set [14] was −2.7 fold. Further, in data set [15], the “FC (fold change) of Gstm1 expression” value is reported as −2.4 fold. Also, the “Fold increase in expression level of Type 1 iodothyronine deiodinase” value in data set [6] is recorded as 2.8 fold. Also, the “FC (fold change) of Gadd45g expression” value in [8] is on record as −2.0 (p < 0.01) fold. Moreover, the “Fold upregulation of Selenoprotein W (SelW) expression” value in the data set on Selenoprotein W (SelW) turned out to be 5.1 fold. For the same compound, the “Alteration of expression level of calpain-5” value in the data set with calpain-5 was −1.07. Besides, the “Fold increase in expression of the Thioredoxin Reductase 1 gene” value in [16] worked out at 1.7 fold.
